The values below come from ChEMBL document CHEMBL2331268, “The interaction of imidazole-, imidazolium-, and tetrazolium-containing compounds with DNA” (Bioorg Med Chem Lett, 2013).

Experiment [1] is described as follows: Displacement of SYBR green I from salmon testes DNA assessed as compound treated with DNA followed by SYBR green I added relative to control. Details: species or system Salmonidae.
Experiment [2] deals with Salmonidae. In words: Displacement of SYBR green I from salmon testes DNA assessed as compound treated with SYBR green I followed by DNA added relative to control.
Experiment [3] has as its system Salmonidae. In words: Displacement of SYBR green I from salmon testes DNA assessed as SYBR green I treated with DNA followed by compound added relative to control.

The structures appear in SMILES notation. Calls of active or inactive are those of the source. The calls are words filed in the database; no cut-off is given here.

Consider `C[n+]1ccn(-c2ccc(-c3ccc(-n4cc[n+](C)c4)cc3)cc2)c1`, for which the IC50 in experiment [1] is 423 µM.

`c1cn(CCCCCCCCCCCCCCCCCCn2ccnc2)cn1`: in the experiment with Salmonidae [2], the outcome was Active. Moreover, in experiment [1], the IC50 was 58 µM.

Take `c1cn(CCCCCCCCn2ccnc2)cn1`: the IC50 in experiment [1] is greater than 2500 µM.

Turning to `Brc1ccc(Cn2cc[n+](Cc3ccc(Br)cc3)c2)cc1`, the IC50 in experiment [1] was greater than 2500 µM.

Turning to `C[n+]1ccn(CCCCCCCCCCCCn2cc[n+](C)c2)c1`, the IC50 in experiment [1] was greater than 2500 µM.

On to `C[n+]1ccn(CCCCCCCCn2cc[n+](C)c2)c1`, for which, in experiment [1], the IC50 is greater than 2500 µM.

`c1cn(CCCCCCCCCCCn2ccnc2)cn1`: the IC50 in experiment [1] was greater than 2500 µM.

For the compound `c1cn(-c2ccc(-c3ccc(-n4ccnc4)cc3)cc2)cn1`, the IC50 in experiment [1] was greater than 2500 µM.

Take `Clc1ccc(Cn2cc[n+](Cc3ccc(Cl)cc3)c2)cc1`: the IC50 in experiment [1] is greater than 2500 µM.

In the case of `C[n+]1ccn(-c2ccc(-n3cc[n+](C)c3)cc2)c1`, in experiment [1], the IC50 was greater than 2500 µM.

As to `c1cn(-c2ccc(-n3ccnc3)cc2)cn1`, the IC50 in experiment [1] is greater than 2500 µM.

Take `C[n+]1ccn(CCCCn2cc[n+](C)c2)c1`: the IC50 in experiment [1] is greater than 2500 µM.

Take `c1cn(Cc2ccc(-c3ccc(Cn4ccnc4)cc3)cc2)cn1`: in experiment [1], the IC50 is greater than 2500 µM.

Regarding `c1cn(CCCCCCCCCCCCCCCCn2ccnc2)cn1`, in the experiment on Salmonidae [3], the result was Active. Moreover, the IC50 in experiment [1] amounted to 52 µM.

On to `c1cn(CCCCCCCCCCCCCCCn2ccnc2)cn1`, for which the IC50 in experiment [1] is greater than 2500 µM.

As for `c1ccc(-c2nn(-c3ccccc3)[n+](-c3ccc(-c4ccc(-[n+]5nc(-c6ccccc6)nn5-c5ccccc5)cc4)cc3)n2)cc1` [NEOTETRAZOLIUM CHLORIDE], in experiment [1], the IC50 came to 66 µM.

Regarding `C[n+]1ccn(Cc2ccc(-c3ccc(Cn4cc[n+](C)c4)cc3)cc2)c1`, the IC50 in experiment [1] is greater than 2500 µM.

`CCC[n+]1ccn(CCCCCCCCCCCCn2cc[n+](CCC)c2)c1`: in experiment [1], the IC50 turned out to be 109 µM.

On to `COc1cc(-c2ccc(-n3nc(-c4ccccc4)n[n+]3-c3ccccc3)c(OC)c2)ccc1-n1nc(-c2ccccc2)n[n+]1-c1ccccc1` [TETRAZOLIUM BLUE CHLORIDE], for which, in experiment [1], the IC50 was greater than 2500 µM.

As to `c1cn(CCCCCCCCCCCCCn2ccnc2)cn1`, the IC50 in experiment [1] is 186 µM.

As to `Clc1ccccc1Cn1cc[n+](Cc2ccccc2Cl)c1`, the IC50 in experiment [1] was greater than 2500 µM.

Turning to `c1ccc(-c2nn(-c3ccccc3)[n+](-c3ccccc3)n2)cc1` [TETRAZOLIUM RED], the IC50 in experiment [1] is greater than 2500 µM.

For the compound `C[n+]1ccn(CCCCCCCCCCCCCn2cc[n+](C)c2)c1`, the IC50 in experiment [1] stood at 25.2 µM.

As for `c1ccc2cc(Cn3cc[n+](Cc4ccc5ccccc5c4)c3)ccc2c1`, the IC50 in experiment [1] is greater than 2500 µM.

Consider `C[n+]1ccn(CCCCCCCCCCCCCCCCn2cc[n+](C)c2)c1`, for which the result with Salmonidae [2] and with Salmonidae [3] was Active. The IC50 in experiment [1] was found to be 30 µM.

In the case of `c1ccc(-c2nn(-c3ccccc3)[n+](-c3cccc4ccccc34)n2)cc1` [TETRAZOLIUM VIOLET], the IC50 in experiment [1] is greater than 2500 µM.

Consider `O=[N+]([O-])c1ccc(Cn2cc[n+](Cc3ccc([N+](=O)[O-])cc3)c2)cc1`, for which the IC50 in experiment [1] was 0.3 µM.

For the compound `c1cn(CCCCCCCCCCCCCCn2ccnc2)cn1`, in experiment [1], the IC50 was greater than 2500 µM.

As to `c1cn(CCCCCCCCCCCCCCCCCCCCn2ccnc2)cn1`, the IC50 in experiment [1] is greater than 2500 µM.

Regarding `COc1cc(-c2ccc(-[n+]3nc(-c4ccccc4)nn3-c3ccc([N+](=O)[O-])cc3)c(OC)c2)ccc1-[n+]1nc(-c2ccccc2)nn1-c1ccc([N+](=O)[O-])cc1` [NITROBLUE TETRAZOLIUM CHLORIDE], in experiment [1], the IC50 is 360 µM.

For the compound `C[n+]1ccn(CCCOc2ccc(OCCCn3cc[n+](C)c3)cc2)c1`, the IC50 in experiment [1] was greater than 2500 µM.

For the compound `C[n+]1ccn(CCCCCCCCCCn2cc[n+](C)c2)c1`, the IC50 in experiment [1] is greater than 2500 µM.

As for `C[n+]1ccn(CCCCCCCCCCCn2cc[n+](C)c2)c1`, the IC50 in experiment [1] was greater than 2500 µM.

`c1ccc(C[n+]2ccn(-c3ccc(-c4ccc(-n5cc[n+](Cc6ccccc6)c5)cc4)cc3)c2)cc1`: the IC50 in experiment [1] was 370 µM.

In the case of `C[n+]1ccn(CCCCCCn2cc[n+](C)c2)c1`, the concentration for half-maximal inhibition (IC50) in experiment [1] is greater than 2500 µM.

`c1cn(CCCCn2ccnc2)cn1`: in experiment [1], the IC50 was greater than 2500 µM.

Consider `c1cn(CCCCCCCCCCCCn2ccnc2)cn1`, for which the IC50 in experiment [1] is greater than 2500 µM.

On to `c1cn(CCCCCCn2ccnc2)cn1`, for which the IC50 in experiment [1] was greater than 2500 µM.

As to `C[n+]1ccn(CCCCCCCCCCCCCCn2cc[n+](C)c2)c1`, the IC50 in experiment [1] stood at 1210 µM.

Regarding `O=[N+]([O-])c1ccc(C[n+]2ccn(-c3ccc(-c4ccc(-n5cc[n+](Cc6ccc([N+](=O)[O-])cc6)c5)cc4)cc3)c2)cc1`, in experiment [1], the IC50 worked out at 0.4 µM.

Regarding `C[n+]1ccn(CCCCCCCCCCCCCCCn2cc[n+](C)c2)c1`, in the experiment on Salmonidae [3], the result was Active. The IC50 in experiment [1] is greater than 2500 µM.

As to `C[n+]1ccn(CCCCCCCCCCCCCCCCCCCCn2cc[n+](C)c2)c1`, in experiment [1], the IC50 turned out to be 8 µM.

Consider `Brc1cccc(Cn2cc[n+](Cc3cccc(Br)c3)c2)c1`, for which, in experiment [1], the IC50 was greater than 2500 µM.

On to `Brc1ccc(C[n+]2ccn(Cc3ccccc3)c2)cc1`, for which the IC50 in experiment [1] is greater than 2500 µM.

`CC[n+]1ccn(CCCCCCCCCCCCn2cc[n+](CC)c2)c1`: the IC50 in experiment [1] was greater than 2500 µM.

As for `O=[N+]([O-])c1ccc(-n2nc(-c3ccccc3)n[n+]2-c2ccc(I)cc2)cc1` [IODONITROTETRAZOLIUM CHLORIDE], the IC50 in experiment [1] was greater than 2500 µM.

As to `COc1cc(-c2ccc(-n3nc(-c4ccc([N+](=O)[O-])cc4)n[n+]3-c3ccc([N+](=O)[O-])cc3)c(OC)c2)ccc1-n1nc(-c2ccc([N+](=O)[O-])cc2)n[n+]1-c1ccc([N+](=O)[O-])cc1`, the IC50 in experiment [1] is 34 µM.

Turning to `c1cn(CCCCCCCCCCn2ccnc2)cn1`, the IC50 in experiment [1] was greater than 2500 µM.

Regarding `C[n+]1ccn(CCCCCCCCCCCCCCCCCCn2cc[n+](C)c2)c1`, in experiment [1], the IC50 was found to be 7.4 µM.

In the case of `Ic1ccc(Cn2cc[n+](Cc3ccc(I)cc3)c2)cc1`, in experiment [1], the IC50 was greater than 2500 µM.

Usually IC50 stands for the concentration that inhibits the measured activity by half.
